The CATMoS acute toxicity set (Mansouri et al. 2021)

Assay: GHS categories as the set defines them, by LD50: 1 up to 5, 2 up to 50, 3 up to 300, 4 up to 2000, 5 above 2000 mg/kg
Details: rat; in vivo; po

Row | SMILES | GHS category
1 | CON=CC1=CCCN(C(=O)Oc2ccc(C(C)C)cc2)C1 | 4
2 | FC(F)(Cl)Cl | 4
3 | CC(C)(C)C1CCC(CC2=C(O)C(=O)c3ccccc3C2=O)CC1 (centres undefined) | 5
4 | CO[Si](CC(C)CC(C)(C)C)(OC)OC (centres undefined) | 5
5 | N#Cc1ccc(C#N)cc1 | 5
6 | [C] | 5
7 | CCCCCCCCCCCCCCCCCC(=O)OCCOCCO | 5
8 | C | 5
9 | CC(=O)NCc1c(I)c(NC(C)=O)c(I)c(C(=O)O)c1I | 5
10 | CCCCCCCCCCCCCCCCBr | 5
11 | CC(C)(O)CCC(C)(C)O | 5
12 | CCCCOC(=O)c1ccc(-n2nc(OCCN(CC)CC)c3ccccc32)cc1 | 4
13 | C[N+](C)(C)CC(O)CC(=O)[O-] (centres undefined) | 5
14 | CC(=O)OC1C=C(C)C2CC(=C(C)C)CC2C(C)C1 (centres undefined) | 5
15 | O=C1CCc2c(OCC(O)CN3CCC(Cc4ccccc4)CC3)cccc2N1Cc1ccccc1 (centres undefined) | 4
16 | COc1cc2nc(N3CCN(C(=O)C4COc5ccccc5O4)CC3)nc(N)c2cc1OC (centres undefined) | 5
17 | COC(=O)COc1nc(F)c(Cl)c(N)c1Cl | 5
18 | CON=C(C(=O)OC)c1ccccc1CON=C(C)c1cccc(C(F)(F)F)c1 | 5
19 | C[C@@H]1C[C@H]2[C@@H]3CCC4=CC(=O)C=C[C@]4(C)[C@@]3(F)[C@@H](O)C[C@]2(C)[C@@]1(O)C(=O)CO | 5
20 | CNC(=O)Oc1cccc2c1OC1(CCCCC1)O2 | 3
21 | Cc1cc(C)c(C2=C(OC(=O)CC(C)(C)C)C3(CCCC3)OC2=O)c(C)c1 | 5
22 | CCCCCCCCOC(=O)CCc1cc(C(C)(C)C)c(O)c(C(C)(C)C)c1 | 5
23 | C=CCSc1nc(N)c2c(C)coc2n1 | 5

Row | SMILES | GHS category
24 | O=C(Cl)CCCCCl | 4
25 | CCCCC(CC)COC(=O)CCCCCCCC(=O)OCC(CC)CCCC (centres undefined) | 5
26 | COC(=O)c1ccccc1S(=O)(=O)NC(=O)Nc1nc(OC(F)F)cc(OC(F)F)n1 | 5
27 | CCCNC(=O)c1cnc2ccccn2c1=O | 3
28 | CCCCCCCCCCCCCCCCCCCN | 5
29 | CC(C)CCCC1CCC(C)(C(=O)O)CC1 (centres undefined) | 5
30 | CCCCCCCOCCCCN1CCCCCC1=O | 5
31 | CNC(C)C(O)c1ccc(NS(C)(=O)=O)cc1 (centres undefined) | 5
32 | OCC(O)COc1nn(Cc2ccccc2)c2ccccc12 (centres undefined) | 5
33 | CC1(C)COC(Cn2ccnc2)(c2cc3ccccc3o2)OC1 | 4
34 | CC(C)C(N)C(=O)OCc1ccccc1 (centres undefined) | 5
35 | O=C(O)CNC(c1ccccc1)c1ccc(Cl)c(Cl)c1 (centres undefined) | 4
36 | Cc1cc(S(=O)(=O)O)c(/N=N/c2c(O)c(C(=O)O)cc3ccccc23)cc1Cl | 5
37 | Cc1ccc(C(=O)O)c(Oc2ccccc2CC(=O)O)c1C | 5
38 | CC(=O)C(N=Nc1cc(C(=O)Nc2cc(Cl)ccc2C)ccc1Cl)C(=O)Nc1cc(C)c(NC(=O)C(N=Nc2cc(C(=O)Nc3cc(Cl)ccc3C)ccc2Cl)C(C)=O)cc1C (centres undefined) | 5
39 | CCC(C)(C)c1ccc(OP(=O)(NC)OC)c(Cl)c1 (centres undefined) | 3
40 | CCCCCCCCC(O)CCO (centres undefined) | 5
41 | CC(C)Cc1ccc2cc(CC(=O)O)ccc2c1 | 4
42 | CC(=O)Oc1ccccc1C(=O)Oc1cccc(CO[N+](=O)[O-])c1 | 5
43 | CCC1COC(Cn2ccnc2)(c2cc3cc(Cl)cc(Cl)c3o2)O1 (centres undefined) | 4
44 | COC(=O)c1c(C(F)F)nc(C(F)(F)F)c(C2=NCCS2)c1CC(C)C | 5
45 | CCCCCCCCCCSCCN1CCCC1=O | 5
46 | COc1ccccc1C1NC(=O)CCS1 (centres undefined) | 5

Row | SMILES | GHS category
47 | CCC1OC(=O)C(C)C(OC2CC(C)(OC)C(O)C(C)O2)C(C)C(OC2OC(C)CC(N(C)C)C2O)C(C)(O)CC(C)(F)C(=O)C(C)C(O)C1(C)O (centres undefined) | 5
48 | O=C(CCl)OC(=O)CCl | 3
49 | NC(=O)Nc1ccc(Cl)c(Cl)c1 | 4
50 | CCCCC(CC)CN1CN(CC(CC)CCCC)CC(C)(N)C1 (centres undefined) | 4
51 | O=C(OCCOCCO)c1ccccc1Nc1ccc(O)c(C(F)(F)F)c1 | 4
52 | COC(=O)[C@H]1CCCO1 | 5
53 | CCN(CCO)N=O | 5
54 | O=C1c2ccccc2C(=O)c2c(O)ccc(O)c21 | 5
55 | CCC(C)CCCC(C)CCCC(C)C (centres undefined) | 5
56 | C[C@H]1COc2c(N3C[C@@H](N)C4(CCC4)C3)c(F)cc3c(=O)c(C(=O)O)cn1c23 | 5
57 | c1ccc2oc(C3(Cn4cncn4)OCCO3)cc2c1 | 4
58 | CCCCCNCC(N)=O | 5
59 | CC12CCC(O)C=C1C(O)CC1(O)C2CCC2(C)C(c3ccc(=O)oc3)CCC21O (centres undefined) | 2
60 | N[C@@H](CC(=O)O)C(=O)O | 5
61 | CCCCCCCC/C=C\CCCCCCCC(=O)N(C)CC(=O)O | 5
62 | Cc1nc(Cl)cc(Nc2ncc(C(=O)Nc3c(C)cccc3Cl)s2)n1 | 5
63 | CCOP(=O)(CN(CCO)CCO)OCC | 5
64 | C=C1[C@H]2CC[C@@H]3[C@H]2C(C)(C)CCC[C@]13C | 5
65 | Nc1ccc(S(=O)(=O)O)cc1N | 5
66 | Clc1cc(Cl)c2oc(C3(Cn4cncn4)OCCCO3)cc2c1 | 4
67 | O=C(O)C[C@H](NCCN[C@@H](CC(=O)O)C(=O)O)C(=O)O | 5
68 | Nc1nc(C2CC2)nc(C(=O)O)c1Cl | 5
69 | CC(C)=CCC/C(C)=C/COCC=O | 5

Row | SMILES | GHS category
70 | CCCCCCCCC(=O)NO | 5
71 | CC(C)C(=O)OCCOc1ccccc1 | 5
72 | COC(=O)C(C)O (centres undefined) | 5
73 | COc1cc2nc(N3CCN(C(=O)CC(C)O)CC3)nc(N)c2cc1OC (centres undefined) | 5
74 | NC(=O)O | 4
75 | CCCCn1c(C)c(C(=O)NC2CCN(CCc3ccccc3)CC2)c2cc(O)ccc21 | 5
76 | CCC(c1cccc(O)c1)C(CC)c1cccc(O)c1 (centres undefined) | 5
77 | CC(C)=CCC/C(C)=C/C(=O)OCCC(C)C | 5
78 | COc1ccc2c(c1)CCN(c1ccccc1)C2c1ccccc1Cl (centres undefined) | 4
79 | CCCCCCOC(=O)CC | 5
80 | O=C1CC[C@H]2CO[C@@H]1O2 | 5
81 | FC(Cl)C(F)(F)C(F)(F)Cl (centres undefined) | 5
82 | CC(=O)Nc1ccc(OC(=O)c2cccs2)cc1 | 5
83 | COC1=C(OC)C(=O)C(CC=C(C)CCC=C(C)CCC=C(C)CCC=C(C)CCC=C(C)CCC=C(C)CCC=C(C)CCC=C(C)CCC=C(C)C)=C(C)C1=O | 5
84 | CC(C)COC(=O)OCN1C(=O)CN(CCN2CC(=O)N(COC(=O)OCC(C)C)C(=O)C2)CC1=O | 5
85 | C=C(C)CCCC(C)CCOC(=O)CC (centres undefined) | 5
86 | O=[N+]([O-])c1ccc2nc[nH]c2c1 | 4
87 | NC[C@H]1O[C@H](O[C@H]2[C@H](O)[C@@H](O[C@H]3O[C@H](CO)[C@@H](O)[C@H](N)[C@H]3O)[C@H](N)C[C@@H]2N)[C@H](N)C[C@@H]1O | 5
88 | C[C@]1(Cn2ccnn2)[C@H](C(=O)O)N2C(=O)C[C@H]2S1(=O)=O | 5
89 | CCOC(=O)C(C)OC(=O)c1cc(Oc2ccc(C(F)(F)F)cc2Cl)ccc1[N+](=O)[O-] (centres undefined) | 5
